Source: patent publication US20250144067A1, “PERSONALIZED STARVATION THERAPY FOR CANCER” (Faeth Therapeutics, Inc., priority 2021, published 2025)

These molecules were tested on NCI-H292 lung cancer cells (assay: FDA drug screening, complete media vs cholesterol-free media without statin (TABLE 1)). Settings: not given.
Format: cell-based, human

Row | Molecule | Cholesterol-free | Complete | Difference
1 | Adenine (hemisulfate) | 1.657 | 0.9172 | −0.74
2 | Amlodipine (besylate) | 1.359 |  | −0.33
3 | Amlodipine (maleate) | 1.127 | 0.9069 | −0.22

Same assay, conditions: Complete minus Cholesterol-free; >0 enhanced anti-cancer activity, about 0 neutral, <0 antagonist

Row | Molecule | Difference
4 | COc1ccc2cc1Oc1ccc(cc1)C[C@H]1c3c(cc4c(c3Oc3cc5c(cc3OC)CCN(C)[C@@H]5C2)OCO4)CCN1C [cepharanthine, reference compound] | 0.04
5 | O[C@H]1[C@H](O)[C@@H](O)[C@H](O)[C@@H](O)[C@H]1O [i-Inositol] | −0.01
6 | C=C1CCC2CC1C2(C)C (stereo not drawn) [β-Pinene] | −0.30
7 | (+)-Catechin hydrate | 0.05
8 | (S)-Timolol (Maleate) | −0.04
9 | Abemaciclib (methanesulfonate) | −0.03
10 | Afatinib (dimaleate) | 0.03
11 | Alimemazine hemitartrate | 0.05

Same assay, conditions: Complete minus Cholesterol-free; […]

Row | Molecule | Difference
12 | COc1ccc(/C=C/C(=O)Nc2ccccc2C(=O)O)cc1OC [trans-Tranilast] | −0.10
13 | (−)-Huperzine A | 0.00
14 | Acetylspiramycin | −0.20
15 | Alarelin (Acetate) | −0.71
16 | Almotriptan (malate) | −0.08

Same assay, conditions: NCI-H292 cells in cholesterol-free media without statin

Row | Molecule | Cholesterol-free
17 | Alarelin (Acetate) | 2.133

Same assay, conditions: NCI-H292 cells in complete media

Row | Molecule | Complete
18 | Alarelin (Acetate) | 1.426

Same assay, conditions: NCI-H292 cells, FDA drug library screen, cholesterol-free media without statin

Row | Molecule | Cholesterol-free
19 | Almotriptan (malate) | 0.8422

Same assay, conditions: NCI-H292 cells, FDA drug library screen, complete media

Row | Molecule | Complete
20 | COc1ccc(/C=C/C(=O)Nc2ccccc2C(=O)O)cc1OC [trans-Tranilast] | 0.8406
21 | Almotriptan (malate) | 0.7605

Same assay, conditions: NCI-H292 cells, cholesterol-free media without statin

Row | Molecule | Cholesterol-free
22 | C=C1CCC2CC1C2(C)C (stereo not drawn) [β-Pinene] | 0.968
23 | Acetylspiramycin | 1.42

Same assay, conditions: NCI-H292 cells, cholesterol-free media without statin, FDA drug library screen

Row | Molecule | Cholesterol-free
24 | COc1ccc2cc1Oc1ccc(cc1)C[C@H]1c3c(cc4c(c3Oc3cc5c(cc3OC)CCN(C)[C@@H]5C2)OCO4)CCN1C [cepharanthine, reference compound] | 1.12
25 | O[C@H]1[C@H](O)[C@@H](O)[C@H](O)[C@@H](O)[C@H]1O [i-Inositol] | 1.553
26 | (S)-Timolol (Maleate) | 1.235
27 | (−)-Huperzine A | 1.621
28 | Abemaciclib (methanesulfonate) | 0.6853
29 | Afatinib (dimaleate) | 0.07869
30 | Alimemazine hemitartrate | 1.186

Same assay, conditions: NCI-H292 cells, complete media

Row | Molecule | Complete
31 | C=C1CCC2CC1C2(C)C (stereo not drawn) [β-Pinene] | 0.6726
32 | Acetylspiramycin | 1.224

Same assay, conditions: NCI-H292 cells, complete media, FDA drug library screen

Row | Molecule | Complete
33 | COc1ccc2cc1Oc1ccc(cc1)C[C@H]1c3c(cc4c(c3Oc3cc5c(cc3OC)CCN(C)[C@@H]5C2)OCO4)CCN1C [cepharanthine, reference compound] | 1.159
34 | O[C@H]1[C@H](O)[C@@H](O)[C@H](O)[C@@H](O)[C@H]1O [i-Inositol] | 1.54
35 | (S)-Timolol (Maleate) | 1.191
36 | (−)-Huperzine A | 1.617
37 | Abemaciclib (methanesulfonate) | 0.6534
38 | Afatinib (dimaleate) | 0.1056
39 | Alimemazine hemitartrate | 1.239

What follows are molecules tested on NCI-H292 lung cancer cells (assay: FDA drug screening, complete media vs cholesterol-free media with simvastatin (TABLE 2)). Settings: not given.
Format: cell-based, human

Row | Molecule | Cholesterol-free media + simvastatin (0.04 μM) | Complete Media | Difference
40 | Adenine (hemisulfate) | 1.503 | 1.604 | 0.10
41 | Amlodipine (besylate) | 1.186 |  | −0.19
42 | Amlodipine (maleate) | 1.087 | 0.7885 | −0.30

Same assay, conditions: NCI-H292 cells, FDA drug library screen, cholesterol-free media with simvastatin 0.04 μM

Row | Molecule | Cholesterol-free media + simvastatin (0.04 μM)
43 | COc1ccc2cc1Oc1ccc(cc1)C[C@H]1c3c(cc4c(c3Oc3cc5c(cc3OC)CCN(C)[C@@H]5C2)OCO4)CCN1C [cepharanthine, reference compound] | 0.1249
44 | Acetylspiramycin | 1.237
45 | Afatinib (dimaleate) | 0.4722
46 | Alimemazine hemitartrate | 0.9971

Same assay, conditions: NCI-H292 cells, FDA drug library screen, complete media

Row | Molecule | Complete Media
47 | COc1ccc2cc1Oc1ccc(cc1)C[C@H]1c3c(cc4c(c3Oc3cc5c(cc3OC)CCN(C)[C@@H]5C2)OCO4)CCN1C [cepharanthine, reference compound] | 1.4
48 | Acetylspiramycin | 1.1
49 | Afatinib (dimaleate) | 0.3193
50 | Alimemazine hemitartrate | 1.335

Same assay, conditions: NCI-H292 cells, FDA library drug in cholesterol-free media with simvastatin 0.04 μM

Row | Molecule | Cholesterol-free media + simvastatin (0.04 μM)
51 | Abemaciclib (methanesulfonate) | 0.9262
52 | Almotriptan (malate) | 1.642

Same assay, conditions: NCI-H292 cells, FDA library drug in complete media

Row | Molecule | Complete Media
53 | Abemaciclib (methanesulfonate) | 0.6131

Same assay, conditions: NCI-H292 cells, cholesterol-free media with simvastatin 0.04 μM; FDA drug library screen (TABLE 2)

Row | Molecule | Cholesterol-free media + simvastatin (0.04 μM)
54 | O[C@H]1[C@H](O)[C@@H](O)[C@H](O)[C@@H](O)[C@H]1O [i-Inositol] | 0.9949
55 | (−)-Huperzine A | 1.198
56 | Alarelin (Acetate) | 0.8515

Same assay, conditions: NCI-H292 cells, cholesterol-free media with simvastatin 0.04 μM; cell growth value in FDA drug screen

Row | Molecule | Cholesterol-free media + simvastatin (0.04 μM)
57 | (S)-Timolol (Maleate) | 1.237

Same assay, conditions: NCI-H292 cells, complete media; FDA drug library screen (TABLE 2)

Row | Molecule | Complete Media
58 | O[C@H]1[C@H](O)[C@@H](O)[C@H](O)[C@@H](O)[C@H]1O [i-Inositol] | 0.9333
59 | (−)-Huperzine A | 1.208
60 | Alarelin (Acetate) | 0.85

Same assay, conditions: NCI-H292 cells, complete media; cell growth value in FDA drug screen

Row | Molecule | Complete Media
61 | (S)-Timolol (Maleate) | 1.285

Same assay, conditions: NCI-H292 cells, drug in cholesterol-free media with simvastatin 0.04 μM

Row | Molecule | Cholesterol-free media + simvastatin (0.04 μM)
62 | COc1ccc(/C=C/C(=O)Nc2ccccc2C(=O)O)cc1OC [trans-Tranilast] | 1.144
63 | C=C1CCC2CC1C2(C)C (stereo not drawn) [β-Pinene] | 1.724

Same assay, conditions: NCI-H292 cells, drug in complete media

Row | Molecule | Complete Media
64 | COc1ccc(/C=C/C(=O)Nc2ccccc2C(=O)O)cc1OC [trans-Tranilast] | 0.9085
65 | C=C1CCC2CC1C2(C)C (stereo not drawn) [β-Pinene] | 1.464

Same assay, conditions: complete media minus cholesterol-free media + simvastatin (0.04 μM); >0 enhanced anti-cancer activity, about 0 neutral, <0 antagonist

Row | Molecule | Difference
66 | O[C@H]1[C@H](O)[C@@H](O)[C@H](O)[C@@H](O)[C@H]1O [i-Inositol] | −0.06
67 | (+)-Catechin hydrate | −0.05

Same assay, conditions: complete media minus cholesterol-free media + simvastatin (0.04 μM); […]

Row | Molecule | Difference
68 | (−)-Huperzine A | 0.01
69 | Alarelin (Acetate) | 0.00

Same assay, conditions: complete media minus cholesterol-free media + simvastatin; >0 enhanced anti-cancer activity, about 0 neutral, <0 antagonist

Row | Molecule | Difference
70 | COc1ccc2cc1Oc1ccc(cc1)C[C@H]1c3c(cc4c(c3Oc3cc5c(cc3OC)CCN(C)[C@@H]5C2)OCO4)CCN1C [cepharanthine, reference compound] | 1.27
71 | (S)-Timolol (Maleate) | 0.05
72 | Alimemazine hemitartrate | 0.34

Same assay, conditions: complete media vs cholesterol-free media + simvastatin (0.04 μM); >0 enhanced anti-cancer activity, about 0 neutral, <0 antagonist

Row | Molecule | Difference
73 | C=C1CCC2CC1C2(C)C (stereo not drawn) [β-Pinene] | −0.26
74 | Abemaciclib (methanesulfonate) | −0.31
75 | Afatinib (dimaleate) | −0.15

Same assay, conditions: complete media vs cholesterol-free media + simvastatin (0.04 μM); […]

Row | Molecule | Difference
76 | COc1ccc(/C=C/C(=O)Nc2ccccc2C(=O)O)cc1OC [trans-Tranilast] | −0.24
77 | Acetylspiramycin | −0.14
78 | Almotriptan (malate) | −0.54
